Measurements reported in PubChem BioAssay AID720598 (Broad Institute, 2013).

These compounds were tested on HT-29 viability, CellTiter-Glo ATP luminescence, 8-48 h (assay: HT-29 colorectal cell cytotoxicity over time, dose response, HRas target identification project, CellTiter-Glo, multiple timepoints, dry powder (AID 720598)). Conditions: measured here: 8 h treatment.

| SMILES | AC50 |
| --- | --- |
| CC(C)(C)OC(=O)NCCOCCOCCOc1ccc(N(C(=O)CCl)C(C(=O)NCCc2ccccc2)c2cccs2)cc1Cl (stereo unspecified) | 742 nM |
| COc1ccc(N(C(=O)CCl)C(C(=O)NCCc2ccccc2)c2cccs2)cc1Cl (stereo unspecified) | 729 nM |
| COC(=O)c1ccc([C@@H]2c3[nH]c4ccccc4c3C[C@@H](C(=O)OC)N2C(=O)CCl)cc1 | 486 nM |
| C#CCCCC(=O)NCCOCCOCCOc1ccc(N(C(=O)CCl)C(C(=O)NCCc2ccccc2)c2cccs2)cc1Cl (stereo unspecified) | 11900 nM |
| Cc1onc(C(=O)N2CCN(C(c3ccc(Cl)cc3)c3ccc(Cl)cc3)CC2)c1[N+](=O)[O-] | 2760 nM |

Same assay, conditions: measured here: 24 h treatment

| SMILES | AC50 |
| --- | --- |
| CC(C)(C)OC(=O)NCCOCCOCCOc1ccc(N(C(=O)CCl)C(C(=O)NCCc2ccccc2)c2cccs2)cc1Cl (stereo unspecified) | 448 nM |
| COc1ccc(N(C(=O)CCl)C(C(=O)NCCc2ccccc2)c2cccs2)cc1Cl (stereo unspecified) | 103 nM |
| COC(=O)c1ccc([C@@H]2c3[nH]c4ccccc4c3C[C@@H](C(=O)OC)N2C(=O)CCl)cc1 | 133 nM |
| C#CCCCC(=O)NCCOCCOCCOc1ccc(N(C(=O)CCl)C(C(=O)NCCc2ccccc2)c2cccs2)cc1Cl (stereo unspecified) | 1510 nM |
| Cc1onc(C(=O)N2CCN(C(c3ccc(Cl)cc3)c3ccc(Cl)cc3)CC2)c1[N+](=O)[O-] | 594 nM |

Same assay, conditions: measured here: 48 h treatment

| SMILES | AC50 |
| --- | --- |
| CCC(=O)N(c1ccc(OC)c(Cl)c1)C(C(=O)NCCc1ccccc1)c1cccs1 (stereo unspecified) | > 70000 nM |
| CC(C)(C)OC(=O)NCCOCCOCCOc1ccc(N(C(=O)CCl)C(C(=O)NCCc2ccccc2)c2cccs2)cc1Cl (stereo unspecified) | 287 nM |
| COc1ccc(N(C(=O)CCl)C(C(=O)NCCc2ccccc2)c2cccs2)cc1Cl (stereo unspecified) | 56.1 nM |
| COC(=O)c1ccc([C@@H]2c3[nH]c4ccccc4c3C[C@@H](C(=O)OC)N2C(=O)CCl)cc1 | 85.6 nM |
| C#CCCCC(=O)NCCOCCOCCOc1ccc(N(C(=O)CCl)C(C(=O)NCCc2ccccc2)c2cccs2)cc1Cl (stereo unspecified) | 1300 nM |
| Cc1onc(C(=O)N2CCN(C(c3ccc(Cl)cc3)c3ccc(Cl)cc3)CC2)c1[N+](=O)[O-] | 544 nM |
